Assay results from patent publication US7015022B2, “Mammalian catalase-dependent oxidation processes and methods for stimulating oxidative activities” (University of Medicine & Dentistry of New Jersey, priority 2002, dated 2006).
Entries after “also recorded” stand apart in the source; their conditions may differ.

Key:
mammalian catalase [1] = target: T1, mammalian catalase (Bos taurus, UniProt P00432); experiment: Competition with AMPLEX-RED: inhibition of the AMPLEX-RED catalase oxidase reaction; type: biochemical, bovine; details: for kind of inhibition of the AMPLEX-RED oxidase reaction (kinetic analysis): competitive or noncompetitive; for inhibition of the AMPLEX-RED catalase oxidase activity: catalase 1 mg/ml in reaction buffer, no concentration given; for inhibition of the oxidation of AMPLEX-RED to resorufin by catalase: concentrations ranging from 0.005 mM to 0.1 mm or greater; for Ki: calculated from kinetic analysis, catalase 1 mg/ml, read-out: Ki for inhibition of the AMPLEX-RED catalase oxidation reaction
T1 construct: purified catalases obtained from a variety of sources including enzyme from mouse and bovine liver; purchased Sigma Chemical Co., St. Louis, Mo; host or cells: liver tissue (mouse and bovine named)
T1 sequence (P00432 2-527 limits assumed): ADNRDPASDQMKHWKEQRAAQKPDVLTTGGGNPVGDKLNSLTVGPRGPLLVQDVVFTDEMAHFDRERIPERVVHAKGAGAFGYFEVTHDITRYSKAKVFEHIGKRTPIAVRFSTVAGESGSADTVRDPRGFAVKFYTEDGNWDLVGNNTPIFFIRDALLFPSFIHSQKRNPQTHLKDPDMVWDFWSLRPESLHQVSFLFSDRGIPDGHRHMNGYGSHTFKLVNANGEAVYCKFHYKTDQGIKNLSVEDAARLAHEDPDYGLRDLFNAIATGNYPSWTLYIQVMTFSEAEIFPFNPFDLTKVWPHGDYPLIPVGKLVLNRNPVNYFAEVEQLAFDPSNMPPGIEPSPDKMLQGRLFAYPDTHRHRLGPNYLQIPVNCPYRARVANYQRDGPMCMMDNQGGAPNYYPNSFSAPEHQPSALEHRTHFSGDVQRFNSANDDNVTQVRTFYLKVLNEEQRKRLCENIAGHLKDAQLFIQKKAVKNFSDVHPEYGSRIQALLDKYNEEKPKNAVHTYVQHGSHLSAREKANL
Description: Catalases were purchased from Sigma Chemical Co., St. Louis, Mo. Reactions were carried out in buffer consisting of 50 mM phosphate buffer, pH 7.4 and 1.0 mg/ml of the catalase at room temperature (22° C.) in a reaction volume of 0.1 ml. […] Standard reaction mixtures contain 20 nmoles of the substrate. Detection of the fluorescent product resorufin was measured using an HTS 7000 Plus Bio Assay Reader (Perkin Elmer, Beaconsfield, Buckinghamsire, UK) using a 540 nm excitation filter and a 595 nm emission filter.

mammalian catalase [2] = target: T1, mammalian catalase; experiment: Oxidation of substrates by catalase oxidase activity (absorbance or fluorescence); type: biochemical, bovine; details: in the absence of hydrogen peroxide
Description: The oxidation of multiple substrates depicted in Table 1 with time was measured using an HTS 7000 Plus Bio Assay Reader using standard catalase reaction mixes (0.5 mg/ml catalase in 50 mM phosphate buffer, pH 7.4). Pyrogallol oxidation (1 mM) was measured by the increase in absorbance at 430 nm. Oxidation of ABTS (1 mM) was measured as the […] in absorbance at 430 nm. Oxidation of catechol (1 mM) was measured as the increase in absorbance at 420 nm. Oxidation of DCFH (5 μM) by catalase was measured as the increase in fluorescence over time with a 485 nm excitation filter and a 520 nm emission filter.

catalase = target: T2, catalase (Bos taurus, UniProt P00432); experiment: Accelerating catalase oxidation of DCFH-DA with UV light; type: biochemical; details: DCFH-DA 5 μM, catalase 1 mg/ml
T2 sequence (P00432 2-527 limits assumed): T1 sequence (P00432 2-527 limits assumed)
Description: The present invention also relates to methods for accelerating the oxidation of substrates by catalase by exposure to ultraviolet light. For purposes of the present invention, by “accelerate” or “accelerating” it is meant that the rate at which catalase oxidizes a substrate is increased when exposed to ultraviolet light as compared the rate of oxidation of the substrate by catalase in the absence of ultraviolet light. In this method, a substrate is added to mammalian catalase and the mixture is then treated with low doses of ultraviolet light to accelerate oxidation of the substrate. In a preferred embodiment of this method, the low dose of ultraviolet radiation ranges between 2.5 and 25 mJ/cm^2 at a wavelength of UVB light that is between 290 and 320 nm. […] For example, the substrate DCFH-DA was added to a reaction mixture containing catalase in sodium phosphate buffer. The samples were then exposed to increasing doses of ultraviolet light (UVB, 290–320 nm).
Samples were then exposed to increasing doses of ultraviolet light (UVB, 290–320 nm) emitted from a bank of two FS20 UVB light bulbs (Sylvania).

Compound | kind of inhibition of the AMPLEX-RED oxidase reaction (kinetic analysis) (mammalian catalase [1]) | inhibition of the oxidation of AMPLEX-RED to resorufin by catalase (mammalian catalase [1]) | other results
5-amino-2,3-dihydro-1,4-phthalazine-dione (luminol) | competitive inhibitor | – | –
O=C(OC1Cc2c(O)cc(O)cc2OC1c1cc(O)c(O)c(O)c1)c1cc(O)c(O)c(O)c1 (single isomer, unassigned; (-)) [EGCG, (−)-epigallocatechin-3-gallate] | – | – | substrate for the catalase oxidase reaction (mammalian catalase [2]): substrate
Nc1nc[nH]n1 [3-amino-1,2,4-triazole] | – | – | inhibition of the AMPLEX-RED catalase oxidase activity (mammalian catalase [1]): inhibits
Cc1c(N(C)C)c(=O)n(-c2ccccc2)n1C [4-dimethylaminoantipyrine] | non-competitive inhibitors | inhibition | kind of inhibition of the AMPLEX-RED oxidase reaction (kinetic analysis) (mammalian catalase [1]; listed as aminopyrene): noncompetitive inhibitor
CCn1/c(=N\N=c2\sc3cc(S(=O)(=O)O)ccc3n2CC)sc2cc(S(=O)(=O)O)ccc21.N.N [ABTS, 2,2′-azino-bis[3-ethylbenzthiazoline-6-sulfonic acid]] | competitive inhibitors | inhibition | –
Nc1ccc(-c2ccc(N)c(N)c2)cc1N [DAB, 3,3′-diaminobenzidine] | competitive inhibitors | inhibition | inhibition of the AMPLEX-RED catalase oxidase activity (mammalian catalase [1]): inhibitors
CC(=O)Oc1cc2c(cc1Cl)C(c1ccccc1C(=O)O)c1cc(Cl)c(OC(C)=O)cc1O2 [DCFH-DA, 2′,7′-dichlorodihydrofluoresceindiacetate] | competitive inhibitors | inhibition | Ki (mammalian catalase [1]): 31.6 µM; oxidation of DCFH-DA by catalase (increase in fluorescence) (catalase; absence of UVB light): Oxidation of DCFH-DA is observed; also recorded: Relatively low levels of oxidation; oxidation of DCFH-DA by catalase (increase in fluorescence) (catalase; with UVB light 290–320 nm, increasing doses): marked enhancement
Oc1ccccc1O [DHB, 1,2-dihydroxybenzene(catechol)] | competitive inhibitors | inhibition | –
COc1cc(-c2ccc(N)c(OC)c2)ccc1N [DMB, 3,3′-dimethoxybenzidine] | competitive inhibitors | inhibition | –
COc1cc(/C=C/C(=O)O)ccc1O [HMCA, 4-hydroxy-3-methoxycinnamicacid (ferulic acid)] | competitive inhibitors | inhibition | substrate for the catalase oxidase reaction (mammalian catalase [2]): substrate
Oc1cccc(O)c1O [pyrogallol, 1,2,3-trihydroxybenzene(pyrogallol)] | competitive inhibitors | inhibition | Ki (mammalian catalase [1]): 1680 µM
